Measurements: patent publication US10968214B2, “KRas G12C inhibitors” (Eli Lilly and Company, priority 2018, dated 2021)
Like-named read-outs stand apart in the source and are kept apart here.

Columns and labels:
H358 = assay: 3D H358 Cell Proliferation Assay; format: cell-based; conditions: Homo sapiens, NCI-H358; H358, 3D, 96 hr; read-out: relative IC50
Protocol: Human lung cancer cells, H358, (ATCC CRL-5807) are used to evaluate compound inhibition in a 3D proliferation assay. Signal reflecting cell proliferation is detected with the CellTiterGlo® 3D reagent (Promega G9683). The cells are grown in RPMI 1640 (GIBCO®) supplemented with 10% heat inactivated FBS and 0.1 mg/ml penicillin/streptomycin. H358 cells are cultured in the growth phase and five thousand cells per well are plated in a black well clear round bottom 96-well ultra-low attachment surface plate (Corning® Cat 4520) with 80 μl/well of culture media. Cells are incubated overnight at 37° C. in a humidity chamber. 20 μl/well of serially diluted test compound is added to the plate which is then incubated for 96 hr. Plates are brought to RT and an equal volume of RT CellTiterGlo® 3D reagent is added. Plates are shaken at 750 RPM for 10 min at RT After a 1 hr incubation at RT to stabilize the signal, the luminescent signal is measured on the EnVision™ plate reader. The signal is converted to percent inhibition using the following equation: % Inhibition=100−[(Test Compound Signal−Median Minimum Signal)/(Median Maximum Signal−Median Minimum Signal)×100]. The Max Signal is a control well without inhibitor.

H2030 = assay: CellTiterGlo Cell Proliferation Assay, H2030; format: cell-based; conditions: Homo sapiens, NCI-H2030, KRas G12C, Lung, 96 hr
Protocol: (§1) A panel of tumor cell lines harboring KRas G12C or other KRas mutations are collected (Table 6). All cell lines are from ATCC or other sources indicated.
(§2) Typically cells are cultured in RPMI1640 or Dulbecco's modified Eagle's medium (DMEM, GIBCO) supplemented with 10% FBS (GIBCO, Invitrogen). For 2D culture cells (4×10^3/well) maintained in growth medium described above, are plated onto 96 well tissue culture plates Corning® Cat. 3603) a day before the treatment. For 3D culture 8000 cells/well are seeded onto 96 well ultra-low attachment tissue culture plates (Corning, #3474). The cells are treated compound for 96 hr, and then are analyzed for viability using the CellTiterGlo® Luminescent Cell Viability Assay® (Promega #G7572 for 2D and Promega #G9683 for 3D cultures) according to manufacturer's instructions and an EnVision™ plate reader. Nonlinear regression and sigmoidal dose-response curves are used to calculate the half maximal inhibitory concentration (IC50) with GraphPad Prism 4® software.

SW1573 = assay: CellTiterGlo Cell Proliferation Assay, SW1573; format: cell-based; conditions: Homo sapiens, KRas G12C, Lung, 96 hr, read-out: IC50 (μM) in 2 D cell proliferation
Protocol: as §1, §2

SW1463 = assay: CellTiterGlo Cell Proliferation Assay, SW1463; format: cell-based; conditions: Homo sapiens, KRas G12C, colon, 96 hr, read-out: IC50 (μM) in 2 D cell proliferation
Protocol: as §1, §2

A427 = assay: CellTiterGlo Cell Proliferation Assay, A427; format: cell-based; conditions: Homo sapiens, A-427, KRas G12D, lung, 96 hr
Protocol: as §1, §2

H441 = assay: CellTiterGlo Cell Proliferation Assay, H441; format: cell-based; conditions: Homo sapiens, NCI-H441, KRas G12V, lung, 96 hr
Protocol: as §1, §2

A549 = assay: CellTiterGlo Cell Proliferation Assay, A549; format: cell-based; conditions: KRas G12S, lung, 96 hr; for IC50: Homo sapiens
Protocol: as §1, §2

H1975 = assay: CellTiterGlo Cell Proliferation Assay, H1975; format: cell-based; conditions: Homo sapiens, NCI-H1975, KRas wild type, lung, 96 hr
Protocol: as §1, §2

SW837 = assay: Combination 4 day growth assay (Cell TiterGlo), SW837; format: cell-based; conditions: Homo sapiens, SW837, 96 h, single treatment, read-out: Absolute IC50
Protocol: (§3) Cell lines for this study are obtained from ATCC and grown under ATCC recommended conditions, except for LXFA-983L, which is obtained from Oncotest/Charles Rivers Laboratories, Wilmington, Mass. and D122-96, which is obtained from L. Eisenbach (Weizman Institute of Science, Rehovot, Israel)—both grown under recommended conditions. […] The proliferation assay is performed as a 4 day growth assay using Cell TiterGlo® as the readout. Briefly, cells are plated in 96-well cell culture plates and allowed to adhere overnight at 37° C. The following day, cells are treated with compounds, either single treatments or combination treatments. First, the testing compounds are serially diluted in DMSO, followed by dilution into media as a 5× concentration with 1% DMSO, and finally added to cells in media to dilute to 1×. The cells are incubated at 37° C. for 4 more days. At the end of the incubation period, Cell TiterGlo® reagent is mixed and added to the wells. After 10 minutes, the luminescence is read by a Perkin Elmer Envision instrument. Absolute IC50 values generated by a 4-parameter logistics model for the single and combination treatments are generated, followed by combination indexes for each combination treatment and cell line. The combination IC50 values are adjusted based on the total concentration of each compound when added together. […] The combination index (CI) measures the degree to which the potency of a combination therapy differs from the expected-if-additive potency and is based on the Loewe definition of additivity.
(§4) [formula] Where • CAy and CBy are the concentrations of therapies A and B that produce an effect, y, when given in combination • ICAy and ICBy are the concentrations of A and B that produce an effect, y, when given individually The biological interpretation of the combination index is as follows: synergistic if the combination index <0.5, additive if the combination index is between 0.5 and 2, and antagonistic if the combination index is >2.

D122-96 = assay: Combination 4 day growth assay (Cell TiterGlo), D122-96; format: cell-based; conditions: Mus musculus, 96 h, single treatment, read-out: Absolute IC50
Protocol: as §3, §4

H2030 xenograft = assay: Anti-tumor growth activity, H2030 lung xenograft; format: in vivo; conditions: 28 Day, negative = regression
SW1463 xenograft = assay: Anti-tumor growth activity, SW1463 colorectal xenograft; format: in vivo; conditions: for Tumor Growth Inhibition (%) or Regression (−%): 28 Day, negative = regression
KYSE-410 xenograft = assay: Anti-tumor growth activity, KYSE-410 esophageal xenograft; format: in vivo; conditions: 28 Day, negative = regression
[1] = read-out: IC50 (μM) in 2 D cell proliferation
[2] = read-out: IC50 (μM) in 3 D spheroid cell proliferation

C=CC(=O)N1CCN(c2ncnc3c(F)c(-c4ccc(F)c5sc(N)nc45)c(Cl)cc23)CC1 [Example 1, 1-{4-[7-(2-Amino-7-fluoro-1,3-benzothiazol-4-yl)-6-chloro-8-fluoroquinazolin-4-yl]piperazin-1-yl}prop-2-en-1-one]
IC50 (H358): < 0.0116 µM
IC50 (H2030; [1]): 6.88 µM
IC50 (H2030; [2]): 0.003 µM
IC50 (SW1573): 16.7 µM
IC50 (SW1463): 0.013 µM
IC50 (A427; [1]): 10.1 µM
IC50 (A427; [2]): 18.6 µM
IC50 (H441; [1]): 16.5 µM
IC50 (H441; [2]): 7.89 µM
IC50 (A549; [1]): 17.7 µM
IC50 (A549; [2]): 5.94 µM
IC50 (μM) in 2 D cell proliferation (A549): little activity
IC50 (μM) in 3 D spheroid cell proliferation (A549): little activity
IC50 (H1975; [1]): 18.7 µM
IC50 (H1975; [2]): 6.2 µM
IC50 (SW837): 0.101 µM
IC50 (D122-96): 0.124 µM
Tumor Growth Inhibition (%) or Regression (−%) (H2030 xenograft; 15 mg/kg BID): 82%
Tumor Growth Inhibition (%) or Regression (−%) (H2030 xenograft; 30 mg/kg BID): 91.9%
Tumor Growth Inhibition (%) or Regression (−%) (H2030 xenograft; 30 mg/kg QD): 75.1%
Tumor Growth Inhibition (%) or Regression (−%) (SW1463 xenograft; 15 mg/kg BID): −27%
Tumor Growth Inhibition (%) or Regression (−%) (SW1463 xenograft; 30 mg/kg BID): −47.9%
Tumor Growth Inhibition (%) or Regression (−%) (SW1463 xenograft; 30 mg/kg QD): −13.9%
In Vivo Anti-Tumor Activities (SW1463 xenograft; Example 1 30 mg/kg QDx28): −21.4
Tumor Growth Inhibition (%) or Regression (−%) (KYSE-410 xenograft; 15 mg/kg BID): 21.2%
Tumor Growth Inhibition (%) or Regression (−%) (KYSE-410 xenograft; 30 mg/kg BID): −9%
Tumor Growth Inhibition (%) or Regression (−%) (KYSE-410 xenograft; 30 mg/kg QD): 74.5%
